Measurements taken from publication PMC10622836, “Crystal structure of histone deacetylase 6 complexed with (R)-lipoic acid, an essential cofactor in central carbon metabolism” (The Journal of Biological Chemistry, 2023).

Target: T1, HDAC6 (histone deacetylase 6) (Danio rerio, UniProt F8W4B7)
T1 construct: catalytic domain 2
T1 sequence (F8W4B7 440-798 limits assumed): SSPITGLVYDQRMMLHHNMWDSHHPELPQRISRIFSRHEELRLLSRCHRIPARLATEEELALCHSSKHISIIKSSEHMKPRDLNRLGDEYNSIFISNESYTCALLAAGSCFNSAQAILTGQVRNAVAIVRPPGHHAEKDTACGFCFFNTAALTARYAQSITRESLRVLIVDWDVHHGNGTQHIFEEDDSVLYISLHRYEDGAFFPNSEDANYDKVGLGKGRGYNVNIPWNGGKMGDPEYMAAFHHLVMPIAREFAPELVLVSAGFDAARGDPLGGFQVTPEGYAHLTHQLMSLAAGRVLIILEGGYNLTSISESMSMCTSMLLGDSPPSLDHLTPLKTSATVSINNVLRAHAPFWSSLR
Assay: X-ray crystal structure ([…] Å) and ITC
Format: binding

Kd: 350 nM
Compound: O=C(O)CCCC[C@@H](S)CCS [(R)-dihydrolipoic acid]
